Source: patent publication US10273228B2, “Hepatitis B viral assembly effectors” (Indiana University Research and Technology Corporation, priority 2015, dated 2019)

How the values were obtained:
[1] = test system: HBV viral load, AD38 cells; experiment: Activity of test compounds on viral production from AD38 cells (viral load by quantitative PCR of the core sequence in supernatant); assay type: cell-based, Hepatitis B virus; settings: Hepatitis B virus, 144 h, 10 μM compound, 6 days at 37° C., vs DMSO control wells; Table 9; read-out: AD38 Viral Load (CpAM/DMSO %) at 10 μM
Outline: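 Cells seeded at 50,000/well on collagen-coated plates and exposed for 6 days at 37 °C to compound at 1, 3 or 10 μM final (1.0% DMSO). Supernatant viral DNA measured by TaqMan qPCR of the core sequence against known standards, compared with DMSO control wells.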

AD38 cells = experiment: AD38 viability normalized to DMSO control; assay type: cell-based; settings: 10 μM compound, vs DMSO control; Table 9
Protocol: AD38 cells were then re-suspended with 10 mL of treatment medium and counted. Wells of a collagen coated 96-well NUNC microtiter plate were seeded at 50,000/well in 180 μL of treatment medium, and 20 μL of either 10% DMSO (Control) or a 10× solution of test compound in 10% DMSO in treatment media was added for a final compound concentration 1, 3, or 10 μM (1.0% final [DMSO]) and plates were incubated for 6 days at 37° C.

SMILES | activity at 10 µM [1] [%] | AD38 Viability Normalized Result (CPAM/DMSO %) at 10 μM (AD38 cells) [%]
C[C@H](Oc1ccc(S(=O)(=O)N2CCN(c3nc(Nc4ccc(F)cc4)cc(C(F)(F)F)n3)CC2)cc1)C(=O)O [Compound 1410, (S)-2-(4-((4-(4-((4-fluorophenyl)amino)-6-(trifluoromethyl)pyrimidin-2-yl)piperazin-1-yl)sulfonyl)phenoxy) propanoic acid] | 14 | 58
Cc1cc(Nc2ccc(F)cc2)nc(N2CCN(S(=O)(=O)c3cccc(CC(=O)O)c3)CC2)n1 [Compound 1411, 2-(3-((4-(4-((4-fluorophenyl)amino)-6-methylpyrimidin-2-yl)piperazin-1-yl)sulfonyl)phenyl) acetic acid] | 117 | 102
COC(=O)Cc1cccc(S(=O)(=O)N2CCN(c3nc(C)cc(Nc4ccc(F)cc4)n3)CC2)c1 [Compound 1412, methyl 2-(3-((4-(4-((4-fluorophenyl)amino)-6-methylpyrimidin-2-yl)piperazin-1-yl)sulfonyl)phenyl) acetate] | 61 | 109
O=S(=O)(c1ccc(OC(F)(F)F)cc1)N1CCN(c2nc(Nc3ccccn3)cc(C(F)(F)F)n2)CC1 [Compound 1415] | 120 | 101
O=S(=O)(c1ccc(OC(F)(F)F)cc1)N1CCN(c2nc(Nc3nccs3)cc(C(F)(F)F)n2)CC1 [Compound 1418, N-(2-(4-((4-(trifluoromethoxy)phenyl)sulfonyl)piperazin-1-yl)-6-(trifluoromethyl)pyrimidin-4-yl) thiazol-2-amine] | 120 | 100
O=S(=O)(c1ccc(OC(F)(F)F)cc1)N1CCCN(c2nc(Nc3ccc(F)cc3)cc(C(F)(F)F)n2)CC1 [Compound 1419] | 11 | 93
